How the values were obtained:
[1] = biological target: T1, human TLR8 (Homo sapiens, UniProt Q9NR97); test: HEK-Blue human TLR8 cells NF-κB SEAP reporter assay; type: cell-based; settings: stimulation for 20 hours, Quanti Blue 640 nm
T1 construct: host or cells: HEK-Blue human TLR8 cells (HEK293-derived reporter line)
T1 sequence (Q9NR97 27-1041): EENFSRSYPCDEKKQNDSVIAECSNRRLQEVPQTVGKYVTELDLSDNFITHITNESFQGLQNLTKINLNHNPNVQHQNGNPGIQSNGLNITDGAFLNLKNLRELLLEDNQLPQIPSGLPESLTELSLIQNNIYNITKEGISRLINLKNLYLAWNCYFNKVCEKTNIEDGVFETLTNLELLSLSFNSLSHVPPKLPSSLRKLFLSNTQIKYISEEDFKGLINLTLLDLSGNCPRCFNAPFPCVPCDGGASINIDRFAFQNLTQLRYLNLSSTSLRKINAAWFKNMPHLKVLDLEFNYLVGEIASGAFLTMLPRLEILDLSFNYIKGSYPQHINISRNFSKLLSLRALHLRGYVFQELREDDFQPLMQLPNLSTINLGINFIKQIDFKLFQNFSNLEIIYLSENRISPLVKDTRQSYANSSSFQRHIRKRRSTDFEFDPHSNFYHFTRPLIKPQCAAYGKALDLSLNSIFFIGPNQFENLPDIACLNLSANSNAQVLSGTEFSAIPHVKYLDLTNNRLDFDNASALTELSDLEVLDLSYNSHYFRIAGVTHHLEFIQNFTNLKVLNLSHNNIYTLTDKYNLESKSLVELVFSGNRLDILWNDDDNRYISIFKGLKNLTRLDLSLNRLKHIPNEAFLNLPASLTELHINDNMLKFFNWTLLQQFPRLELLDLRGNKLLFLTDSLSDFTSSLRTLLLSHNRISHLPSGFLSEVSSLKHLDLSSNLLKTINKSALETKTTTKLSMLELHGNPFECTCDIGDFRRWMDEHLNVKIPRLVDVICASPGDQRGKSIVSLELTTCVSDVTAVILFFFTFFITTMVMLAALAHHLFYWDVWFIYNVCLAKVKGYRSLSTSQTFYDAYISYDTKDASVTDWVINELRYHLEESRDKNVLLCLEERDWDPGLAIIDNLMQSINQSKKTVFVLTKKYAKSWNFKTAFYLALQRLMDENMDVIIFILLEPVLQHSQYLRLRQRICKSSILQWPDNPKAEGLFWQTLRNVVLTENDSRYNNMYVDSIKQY
Source text: (§1) For TLR8 and TLR7 activity testing, HEK-Blue human TLR8 or TLR7 cells (Invivogen, San Diego, Calif., USA) are used, respectively. These cells are designed for studying the stimulation of human TLR8 or TLR7 by monitoring the activation of NF-κB. A SEAP (secreted embryonic alkaline phosphatase) reporter gene is placed under the control of the IFN-b minimal promoter fused to five NF-κB and AP-1-binding sites. Therefore the reporter expression is regulated by the NF-κB promoter upon stimulation of human TLR8 or TLR7 for 20 hours. The cell culture supernatant SEAP reporter activity was determined using Quanti Blue kit (Invivogen, San Diego, Calif., USA) at a wavelength of 640 nm, a detection medium that turns purple/blue in the presence of alkaline phosphatase. EC50 values were determined using Activity Base analysis (ID Business Solution, Limited).

[2] = biological target: T2, human TLR7 (Homo sapiens, UniProt Q9NYK1); test: HEK-Blue human TLR7 cells NF-κB SEAP reporter assay; type: cell-based; settings: stimulation for 20 hours, Quanti Blue 640 nm
T2 construct: host or cells: HEK-Blue human TLR7 cells (HEK293-derived reporter line)
T2 sequence (Q9NYK1 27-1049): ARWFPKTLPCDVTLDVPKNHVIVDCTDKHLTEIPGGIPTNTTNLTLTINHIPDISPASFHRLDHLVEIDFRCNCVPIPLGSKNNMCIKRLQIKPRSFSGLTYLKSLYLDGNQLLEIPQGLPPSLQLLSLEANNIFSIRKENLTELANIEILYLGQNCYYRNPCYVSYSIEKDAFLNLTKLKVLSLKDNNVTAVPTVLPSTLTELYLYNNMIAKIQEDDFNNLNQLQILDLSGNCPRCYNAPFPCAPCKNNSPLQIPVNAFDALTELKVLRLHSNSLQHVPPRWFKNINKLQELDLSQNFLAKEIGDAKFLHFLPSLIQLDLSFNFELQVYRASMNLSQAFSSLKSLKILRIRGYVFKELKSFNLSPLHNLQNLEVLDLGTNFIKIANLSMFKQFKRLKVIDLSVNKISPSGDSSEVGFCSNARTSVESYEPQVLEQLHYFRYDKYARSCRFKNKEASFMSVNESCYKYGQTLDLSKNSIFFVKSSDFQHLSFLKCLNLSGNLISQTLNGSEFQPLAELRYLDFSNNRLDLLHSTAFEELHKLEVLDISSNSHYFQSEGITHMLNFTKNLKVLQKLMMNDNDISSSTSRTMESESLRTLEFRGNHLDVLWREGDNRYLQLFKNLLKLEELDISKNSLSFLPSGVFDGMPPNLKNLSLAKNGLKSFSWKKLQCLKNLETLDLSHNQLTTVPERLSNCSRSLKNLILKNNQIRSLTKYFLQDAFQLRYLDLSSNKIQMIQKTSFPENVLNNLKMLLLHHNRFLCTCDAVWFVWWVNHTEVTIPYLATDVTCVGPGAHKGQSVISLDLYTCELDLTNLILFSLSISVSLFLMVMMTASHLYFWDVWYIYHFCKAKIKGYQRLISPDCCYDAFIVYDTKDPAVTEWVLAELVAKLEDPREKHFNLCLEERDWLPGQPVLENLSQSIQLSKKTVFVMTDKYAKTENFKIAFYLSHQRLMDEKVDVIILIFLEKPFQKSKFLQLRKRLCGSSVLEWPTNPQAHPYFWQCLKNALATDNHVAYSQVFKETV
Source text: as §1

Row | SMILES | EC50 [1] [nM] | EC50 [2] [µM]
1 | CCCN(CCC)C(=O)C1=Cc2ccc(C(=O)NC(c3ccccc3)c3ccccc3)cc2N=C(N)C1 [Example 10, 2-Amino-N8-benzhydryl-N4,N4-dipropyl-3H-1-benzazepine-4,8-dicarboxamide] | 11 | > 100
2 | CCCN(CCC)C(=O)C1=Cc2ccc(C(=O)NC3CCCCC3)cc2N=C(N)C1 [Example 4, 2-Amino-N8-cyclohexyl-N4,N4-dipropyl-3H-1-benzazepine-4,8-dicarboxamide] | 4 | 34
3 | CCCN(CCC)C(=O)C1=Cc2ccc(C(=O)N[C@H]3CCN(c4ccccc4)C3)cc2N=C(N)C1 [Example 25, 2-Amino-N8-[(3S)-1-phenylpyrrolidin-3-yl]-N4,N4-dipropyl-3H-1-benzazepine-4,8-dicarboxamide] | 10 | > 100
4 | CCCN(CCC)C(=O)C1=Cc2ccc(C(=O)NCCc3cccnc3)cc2N=C(N)C1 [Example 20, 2-Amino-N4,N4-dipropyl-N8-[2-(3-pyridyl)ethyl]-3H-1-benzazepine-4,8-dicarboxamide] | 30 | > 100

The next lines start with the values.

Row | EC50 [1] [nM] | EC50 [2] [µM] | SMILES
5 | 25 | 49 | CCCN(CCC)C(=O)C1=Cc2ccc(C(=O)NCc3cccnc3)cc2N=C(N)C1 [Example 19, 2-Amino-N4,N4-dipropyl-N8-(3-pyridylmethyl)-3H-1-benzazepine-4,8-dicarboxamide]
6 | 13 | 42 | CCCN(CCC)C(=O)C1=Cc2ccc(C(=O)NCc3nccs3)cc2N=C(N)C1 [Example 12, 2-Amino-N4,N4-dipropyl-N8-(thiazol-2-ylmethyl)-3H-1-benzazepine-4,8-dicarboxamide]

Source: patent US10544102B2, “Benzazepine dicarboxamide compounds with secondary amide function” (Hoffmann-La Roche Inc., priority 2017, dated 2020)
